Results on 2 compounds are retold here after ChEMBL document CHEMBL4665813, “Antifungal polybrominated proxyphylline derivative induces Candida albicans calcineurin stress response in Galleria mellonella” (Bioorg Med Chem Lett, 2020).

The structures appear in SMILES notation. pIC50: −log10 of the molar value. Activity calls are given as the source filed them. The calls are words filed in the database; no cut-off is given here.

The nature of data set [1]: Toxicity in Galleria mellonella infected with Candida albicans CAI4 assessed as haemocyte aggregation in tracheal walls at 0.64 microg/mg infected with fungi followed by compound treatment for 1 hr by hematoxylin and eosin staining based analysis. Particulars: dose 0.64 µg/mg.
The nature of data set [2]: Toxicity in Galleria mellonella infected with Candida albicans harboring cnb1delta/CNB1 assessed as effect on haemocyte aggregation at 0.64 microg/mg pre-treated with compound for 1 hr followed by fungal infection by hematoxylin and eosin staining based analysis. Particulars: […].
The test system of data set [3] is Candida albicans. Briefly: Antibiofilm activity against Candida albicans at 5 to 20 uM. Particulars: dose microM 5-20. It is filed as functional, organism-based.
Data set [4] deals with Candida albicans. Briefly: Decrease in chitin level in Candida albicans harboring cnb1delta/CNB1 mutant by measuring staining index at 20 uM after 18 hrs by calcofluor White staining based flow cytometry analysis. It is filed as functional.
Data set [5] concerns Candida albicans. The experiment in a line: Induction of apoptosis in Candida albicans harboring cnb1delta mutant at 20 uM. It is filed as functional, organism-based.
In data set [6] the test system is Candida albicans. Briefly: Reduction in Candida albicans SC5314 adhesion to epithelium expressing wild-type SAP9/10 at 5 uM. The format is functional, organism-based.
Data set [7] deals with Candida albicans. Briefly: Antifungal activity against Candida albicans harboring cnb1delta/CNB1 mutant infected in Galleria mellonella larvae assessed as increase in larvae survival at 0.64 ug/mg measured within 5 days. Particulars: dose 0.64 µg/mg, time 5.0 day. The format is functional, organism-based.
For data set [8], the system named is Candida albicans. Briefly: Inhibition of calcineurin catalytic activity in Candida albicans at 5 uM.
Data set [9] relates to Candida albicans. The experiment in a line: Induction of cell membrane permeabilization in Candida albicans by flow cytometry analysis. It is filed as functional, organism-based.
For data set [10], the system named is Candida albicans. Briefly: Induction of apoptosis in wild type Candida albicans SC5314 at 20 uM. The format is functional.
Data set [11] can be described thus: Toxicity in Galleria mellonella infected with Candida albicans harboring cnb1delta/CNB1 assessed as formation of nodules at 0.64 microg/mg infected with fungi followed by compound treatment for 1 hr by hematoxylin and eosin staining based analysis. Particulars: dose 0.64 µg/mg.
Data set [12] relates to Vero. Briefly: Inhibition of calcineurin in Candida albicans harboring sap9/10delta mutant assessed as change in CNB1 expression measured during invasion of African green monkey Vero cells at 5 uM after 8 hrs by RT-qPCR analysis relative to control.
Data set [13] deals with Vero. Briefly: Inhibition of calcineurin in Candida albicans CAI4 assessed as change in CNB1 expression measured during invasion of African green monkey Vero cells at 5 uM after 18 hrs by RT-qPCR analysis (reference value: -3.66). It is filed as cell-based.
The subject of data set [14] is Candida albicans. The experiment in a line: Reduction in Candida albicans adhesion to epithelium expressing SAP9/10 mutant relative to control. The format is functional. More on the design: scale not given: the % may be the effect or the level left.
Data set [15] has as its system Vero. Briefly: Inhibition of calcineurin in Candida albicans harboring sap9delta mutant assessed as change in CNB1 expression measured during invasion of African green monkey Vero cells at 5 uM after 18 hrs by RT-qPCR analysis (reference value: -4.39).
Data set [16] relates to Candida albicans. The experiment in a line: Induction of necrosis in Candida albicans by flow cytometry analysis. The format is functional.
In data set [17] the test system is Candida albicans. Briefly: Antifungal activity against Candida albicans CAI4 infected in Galleria mellonella larvae assessed as increase in larvae survival at 0.64 ug/mg measured within 5 days. It is filed as functional, organism-based. Particulars: time 5.0 day.
Data set [18] deals with Candida albicans. Briefly: Reduction in Candida albicans SC5314 adhesion to epithelium expressing wild-type SAP9/10 at 20 uM. It is filed as functional, organism-based.
Data set [19] deals with Vero. Briefly: Inhibition of calcineurin in Candida albicans harboring sap9/10delta mutant assessed as change in CNB1 expression measured during invasion of African green monkey Vero cells at 5 uM after 18 hrs by RT-qPCR analysis (reference value: -1.67).
A short description of data set [20]: Toxicity in Galleria mellonella infected with Candida albicans harboring cnb1delta/CNB1 assessed as effect on melanization at 0.64 microg/mg pre-treated with compound for 1 hr followed by fungal infection by hematoxylin and eosin staining based analysis. Particulars: dose 0.64 µg/mg.
Data set [21] has as its system Candida albicans. The experiment in a line: Induction of apoptosis in Candida albicans at sub-MIC. It is filed as functional, organism-based.
The nature of data set [22]: Inhibition of calcineurin phosphatase activity (unknown origin). More on the design: species or system Homo sapiens.
Data set [23] in a line: Inhibition of calcineurin phosphatase activity in human Jurkat cells by Western blot analysis. The format is cell-based.

With `CC(Cn1cnc2c1c(=O)n(C)c(=O)n2C)OCc1cn(CCCn2nc3c(Br)c(Br)c(Br)c(Br)c3n2)nn1` (stereo not drawn), the Activity result in data set [1] was “Toxic”; in data set [2], “Non-Toxic”; with Candida albicans [9], “Dose-dependent effect”; in [11] it was “Non-Toxic”; in the data set with Candida albicans [14], 100%; with Candida albicans [16], “Dose-dependent effect”. In addition, the Activity entry in [20] is reported as “Non-Toxic”. Moreover, the result with Candida albicans [3], in the data set with Candida albicans [4], with Candida albicans [5], in the data set with Candida albicans [7], in the data set on Candida albicans [10] and in the data set on Candida albicans [17] was Active. For the same compound, the outcome with Candida albicans [18] and in the data set with Candida albicans [21] was Active. Besides, the outcome in the data set with Candida albicans [6] was inactive. Further, the inhibition result in the data set with Candida albicans [8] is “Active”. The fold change (FC) is -2.38 with Vero [12], -2.98 in the data set with Vero [13], 0.24 in the data set on Vero [15] and -4.52 in the data set with Vero [19].

With `C=CC[C@@H]1/C=C(\C)C[C@H](C)C[C@H](OC)[C@H]2O[C@@](O)(C(=O)C(=O)N3CCCC[C@H]3C(=O)O[C@H](/C(C)=C/[C@@H]3CC[C@@H](O)[C@H](OC)C3)[C@H](C)[C@@H](O)CC1=O)[C@H](C)C[C@@H]2OC` [TACROLIMUS ANHYDROUS], the pIC50 in [22] is 9.40; in data set [23], 8.70.
